Source: US10959992B2, “Methods of treatment of asthma and COPD” (Bridge Pharma, Inc., priority 2019, dated 2021)
Values after ≈ are worked out from the molar mass of the structure shown.

How the values were obtained:
Aspergillus fumigatus = assay: Antimicrobial activity (MIC), Aspergillus fumigatus; type: cell-based; conditions: Fungi: Af, MIC refers to lethal concentrations
IL-6 = assay: PHA-induced release of IL-6 from human buffy coats; type: cell-based; conditions: PHA 5 μg/ml, 16 hours, inhibition
Method: (§1) The study was conducted in two phases. The first phase included optimization of the test methodology and included also dose-range finding studies, using buffy coats from 3 human donors, stimulated with phytohemagglutinin (PHA). The concentrations of the test article and the duration of exposure were optimized to obtain acceptable dose-response ratios. Following optimization of the test conditions, a final protocol was issued. In the Main Study, buffy coats from 5 healthy human male donors were stimulated with PHA, 5 μg/ml.
(§2) The inhibitory effects of three concentrations of NK and one concentration of ketotifen were evaluated in the Main Study. The buffy coats were resuspended in assay media and were pre-incubated for 30 min with either vehicle/saline, ketotifen (10 μM) or norketotifen (1.0; 10 or 100 μM). Following these preincubations, the white blood cell suspensions were stimulated for 16 hours with PHA, 5 μg/ml. The cell system supernatants were then harvested and stored frozen.

IFN-γ = assay: PHA-induced release of IFN-γ from human buffy coats; type: cell-based; conditions: PHA 5 μg/ml, 16 hours, inhibition
Method: as §1, §2

[1] = test system: oxazolone-induced increase in ear thickness; assay: Oxazolone test of immunosuppression (ear thickness); type: in vivo, BALB/c mice; conditions: for Increase in ear thickness (mm): control 0.153; for Increase in ear thickness (%): control 100.0
Method: Male BALB/c mice, 20-24 grams, 7-12 weeks, were used. The sensitization dosing (Day 1) consisted of painting the ventral portion of the pre-shaved abdominal skin with 0.1 ml of 3.0% oxazolone in 70% ethanol. Test articles were administered orally in 1.0% methyl-cellulose, starting on Day 1 and continuing for 10 consecutive days. The challenge dosing consisted of the application of 0.05 ml of 3.0% oxazolone in 70% ethanol on both sides of the outer pinna of the right ear. The thickness of both ears of all animals was measured with a calliper before the challenge dose and 24 hours after the administration of the challenge dose (Day 10). The ear thickness of untreated mice was 0.19 to 0.20 mm.
Justification of the model: The classic oxazolone test method was used with minor modifications. This method has been used for over 40 years in numerous drug development projects.

IL-10 = assay: PHA-induced release of IL-10 from human buffy coats; type: cell-based; conditions: PHA 5 μg/ml, 16 hours, inhibition
Method: as §1, §2

[2] = test system: Methicillin-resistant S. aureus; assay: Antimicrobial activity (MIC), MRSA; type: cell-based; conditions: Staphylococcus aureus; Bacteria: MRSA; MIC refers to lethal concentrations
sedation = conditions: orally administered, dogs; U.S. Pat. No. 8,557,846; cited from earlier work
human M-3 (hM3) receptor = human M-3 (hM3) receptor (Homo sapiens, UniProt P20309); assay: Muscarinic M-3 receptor binding assay; conditions: calculated from mean values, as norketotifen free base; NK hydrogen fumarate tested in duplicates, 1.0E-08M to 1.0E-04M
Chain of human M-3 (hM3) receptor (P20309 whole entry): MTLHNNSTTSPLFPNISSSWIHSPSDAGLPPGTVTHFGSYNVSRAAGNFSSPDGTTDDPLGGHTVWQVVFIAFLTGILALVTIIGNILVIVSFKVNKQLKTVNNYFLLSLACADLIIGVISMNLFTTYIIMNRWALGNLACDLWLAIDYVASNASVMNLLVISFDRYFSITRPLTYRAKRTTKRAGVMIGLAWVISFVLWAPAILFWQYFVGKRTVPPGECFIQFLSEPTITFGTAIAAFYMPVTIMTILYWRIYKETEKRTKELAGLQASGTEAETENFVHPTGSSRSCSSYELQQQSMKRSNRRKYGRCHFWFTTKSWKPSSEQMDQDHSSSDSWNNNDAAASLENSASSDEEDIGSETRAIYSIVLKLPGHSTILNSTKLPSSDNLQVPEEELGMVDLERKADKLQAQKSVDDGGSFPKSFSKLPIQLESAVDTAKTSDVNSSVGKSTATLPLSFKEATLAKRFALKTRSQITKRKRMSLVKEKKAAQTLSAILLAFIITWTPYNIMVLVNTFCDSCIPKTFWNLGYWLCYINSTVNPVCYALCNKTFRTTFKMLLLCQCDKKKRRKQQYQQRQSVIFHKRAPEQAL
Description: The current study used human M-3 (hM3) receptor and NK hydrogen fumarate was the antagonist in the current studies. The study used NK in duplicates at five dose-levels from 1.0E-08M to 1.0E-04M.

PAF-induced eosinophilia = assay: PAF-induced pulmonary eosinophil accumulation after continuous subcutaneous dosing; type: in vivo, Sprague-Dawley rats; conditions: sc 1.0 mg/kg/day for six days, PAF-treated rats
Method: Male Sprague-Dawley rats, 400-600 g, were used in these studies.
The study described here used subcutaneous administration of norketotifen and ketotifen by Alzet® osmotic pumps. The rats were administered either RS-norketotifen hydrogen fumarate (1.0 mg/kg/day) or RS-ketotifen hydrogen fumarate (1.0 mg/kg/day) or saline. After five days of sc infusions of test articles and the vehicle, the animals were injected, i.p. with 10 μg PAF (platelet aggregating factor) in 0.25% bovine serum albumin (BSA) in saline. The subcutaneous infusions of test articles or vehicle were continued for another twenty-four hours and the animals were then sacrificed by intraperitoneal injections of a barbiturate. The tracheae of the euthanized animals were exposed and cannulated and aliquots (6×10 ml) of a Tyrode solution were successively introduced into the lungs and aspirated by gentle compression of the thorax. The total recovery of lung fluid was usually above 80%. The cell suspensions were concentrated by low speed centrifugation (200 g for 10 min) and the resulting cell pellet was resuspended in 1 ml of a Tyrode solution. Total cell counts were performed after dilution in Turks fluid, fixation in methanol and Leishman staining.
The study shown here used norketotifen, ketotifen, and saline (control) after continuous dosing with Alzet® Osmotic pumps.

[3] = test system: croton oil-induced ear swelling; assay: Croton oil-induced ear swelling; type: in vivo, CD-1 female mice; set-up: Average ear thickness: unit not given beside the values; conditions: for Average ear thickness: single oral dose 10 mg/kg 60 min before
Method: The effects of NK, PRED and the vehicle (5% PEG in water) were tested orally in CD-1 female mice. Under the test protocol, 20 μl of 1.0% croton oil in acetone was applied topically to both ears of three groups of mice, each group consisting of 6 mice. No attempt was made to remove the croton oil solution since the solvent evaporated within 30 seconds. The oral doses of NK and PRED were 10 mg/kg (10 ml/kg) bodyweight for both compounds and were administered 60 min before the croton oil applications. Vehicle-treated mice were dosed 10 ml/kg of water, containing 5% polyethylene glycol (PEG), which was also the solvent for the test articles. Ear thickness was measured with an electronic caliper and mean ear thickness (N=12; right+left ears) were calculated and compared with the thickness of ears from vehicle-treated mice (Student's t-test).

[4] = test system: Staphylococcus intermedius; assay: Antimicrobial activity (MIC), Staphylococcus intermedius; type: cell-based; conditions: Bacteria: Si, MIC refers to lethal concentrations
Klebsiella pnemoniae = assay: Antimicrobial activity (MIC), Klebsiella pnemoniae; type: cell-based; conditions: Bacteria: Kp, MIC refers to lethal concentrations
Staphylococcus aureus = assay: Antimicrobial activity (MIC), Staphylococcus aureus; type: cell-based; conditions: Bacteria: Sa, MIC refers to lethal concentrations
[5] = 10.0 mg/kg/day oral for 10 days
[6] = 30.0 mg/kg/day oral for 10 days

## O=C1Cc2ccccc2C(=C2CCNCC2)c2ccsc21 (racemic) [norketotifen]
Aspergillus fumigatus
  MIC: 4000 µg/mL (≈ 13500 µM)
IL-6; 1 uM
  Effect on PHA-induced release of IL-6 (%): 0.00%
IL-6; 10 uM
  Effect on PHA-induced release of IL-6 (%): 33.13^1%
IL-6; 100 uM
  Effect on PHA-induced release of IL-6 (%): 88.16^1%
IFN-γ; 1 uM
  Effect on PHA-induced release of IFN-γ (%): 0.00%
IFN-γ; 10 uM
  Effect on PHA-induced release of IFN-γ (%): 16.54^2%
IFN-γ; 100 uM
  Effect on PHA-induced release of IFN-γ (%): 71.56^1%
[1]; [5]
  Immunosuppression (%): 3.9%
  Increase in ear thickness (mm): 0.147 mm
  Increase in ear thickness (%): 96.1%
[1]; [6]
  Immunosuppression (%): 8.5%
  Increase in ear thickness (mm): 0.140 mm
  Increase in ear thickness (%): 91.5%
[1]; daily oral dosing for 10 days to mice, RS-norketotifen 10 or 30 mg/kg, prednisolone at 10 times lower doses
  Immuno-suppressant activity (conclusion in words): did not induce immuno-suppressant activity
IL-10; 1 uM
  Effect on PHA-induced release of IL-10 (%): 12.71^2%
IL-10; 10 uM
  Effect on PHA-induced release of IL-10 (%): 24.80^2%
IL-10; 100 uM
  Effect on PHA-induced release of IL-10 (%): 90.40^1%
[2]
  MIC: 2000 µg/mL (≈ 6770 µM)
sedation
  Sedative side effects: free from sedative side effects
Human M-3 (hM3) receptor
  Ki: 2200 nM
PAF-induced eosinophilia
  Reduction of eosinophil counts below the baseline (saline control) level: 26%
[3]; 0 (predose) min after croton oil, vehicle 0.21 ± 0.02
  Average ear thickness: 0.21 ± 0.02
[3]; 90 min after croton oil, vehicle 0.29 ± 0.04
  Average ear thickness: 0.24 ± 0.02
[3]; 120 min after croton oil, vehicle 0.28 ± 0.02
  Average ear thickness: 0.25 ± 0.02
[3]; single oral dose 10 mg/kg, croton oil ear swelling in mice
  Anti-inflammatory effect compared with vehicle control group (conclusion in words): statistically significant anti-inflammatory effects
[4]
  MIC: 250 µg/mL (≈ 846 µM)
Klebsiella pnemoniae
  MIC: 500 µg/mL (≈ 1690 µM)
Staphylococcus aureus
  MIC: 500 µg/mL (≈ 1690 µM)
